1 compound from paper PMC6009956, “Design, synthesis and biological activity of N^4-phenylsubstituted-7H-pyrrolo[2,3-d]pyrimidin-4-amines as dual inhibitors of aurora kinase A and epidermal growth factor receptor kinase” (Journal of Enzyme Inhibition and Medicinal Chemistry, 2017) can be followed below.

The structures appear in SMILES notation.

For orientation: IC50 means the midpoint of a concentration-inhibition curve. Usually Kd stands for a measure of binding affinity in units of concentration.

Test [1] deals with FADU cells. The test is described as follows: Cell killing, PI staining and FACS, FADU. The format is cell-based. The method, then:
(§1) FADU, BHY, SAS and CAL cell lines were obtained from ATCC-LGC and were cultured in DMEM (Invitrogen, Germany) supplemented with 10% of heat activated bovine serum (FBS, PAA, Germany), 1% of glutamine, 1% of penicillin-streptomycin (Invitrogen, Germany). To measure proliferation, SCCHN cells were split, reseeded (5 × 10^5 in 25 cm^2 flasks) and counted at the indicated time points. Cells were then replated at the initial density. The fold increase in cell number was calculated, all given results are based on triplicate experiments. To assess cell death 5 × 10^5 cells were stained with propidium iodide (PI, Sigma, Germany). Following incubation, cells were washed, resuspended in PBS, and analysed by flow cytometry. The fraction of PI-positive cells is reported as dead cell fraction.
(§2) Figure 3. […] Cells were incubated with compound 2 for 48 h and then subjected to PI staining and FACS analysis. PI-positive cell fraction as measure of cell death is reported. (B) Four SCCHN cell lines were incubated with 100 μM of compound 2 and counted on the indicated days. Experiments in triplicates, fold growth shown. (C) EGFR expression of SCCHN cell lines. EGFR high and low as detected by western blot analysis (D) The SCCHN cell lines were incubated with 100 μM of compound 2 for 72 h. Percent PI positive cells are given. Experiments in triplicates.

The subject of test [2] is FADU cells. Nature of the test: Proliferation (cell counting), FADU. The format is cell-based. The following applies: 100 µM. The method, then: as §1, §2
The next test addresses EGFR (Homo sapiens, UniProt P00533). The test is described as follows: DiscoverX competition binding assay, EGFR. As to conditions: read-out: Binding constant (Kd) EGFR. More on the design: purchased DiscoverX Corporation (assay run externally by the vendor). The procedure: The assay was performed externally at DiscoverX Corporation using a competition binding assay that quantitatively measures the ability of a compound to compete with an immobilised, active-site directed ligand[24]. The assay is performed by combining three components: DNA-tagged kinase, immobilised ligand and a test compound. The ability of the test compound to compete with the immobilised ligand was measured via quantitative PCR of the DNA tag. An 11-point 3-fold serial dilution of each test compound was prepared in 100% of DMSO at 100× final test concentration and subsequently diluted to 1× in the assay (final DMSO concentration = 1%). […] Binding constants (Kd) were calculated with a standard dose-response curve using the Hill equation.
Binding Affinities for EGFR, AURKA and AURKB
The assay was performed externally at DiscoverX Corporation using a competition binding assay that quantitatively measures the ability of a compound to compete with an immobilized, active-site directed ligand for target kinases AURKA, AURKB and EGFR.23 The assay is performed by combining three components: DNA-tagged kinase; immobilized ligand; and a test compound. The ability of the test compound to compete with the immobilized ligand was measured via quantitative PCR of the DNA tag. […] Compound Kds were determined using a compound top […]

Chain of EGFR (P00533 25-1210): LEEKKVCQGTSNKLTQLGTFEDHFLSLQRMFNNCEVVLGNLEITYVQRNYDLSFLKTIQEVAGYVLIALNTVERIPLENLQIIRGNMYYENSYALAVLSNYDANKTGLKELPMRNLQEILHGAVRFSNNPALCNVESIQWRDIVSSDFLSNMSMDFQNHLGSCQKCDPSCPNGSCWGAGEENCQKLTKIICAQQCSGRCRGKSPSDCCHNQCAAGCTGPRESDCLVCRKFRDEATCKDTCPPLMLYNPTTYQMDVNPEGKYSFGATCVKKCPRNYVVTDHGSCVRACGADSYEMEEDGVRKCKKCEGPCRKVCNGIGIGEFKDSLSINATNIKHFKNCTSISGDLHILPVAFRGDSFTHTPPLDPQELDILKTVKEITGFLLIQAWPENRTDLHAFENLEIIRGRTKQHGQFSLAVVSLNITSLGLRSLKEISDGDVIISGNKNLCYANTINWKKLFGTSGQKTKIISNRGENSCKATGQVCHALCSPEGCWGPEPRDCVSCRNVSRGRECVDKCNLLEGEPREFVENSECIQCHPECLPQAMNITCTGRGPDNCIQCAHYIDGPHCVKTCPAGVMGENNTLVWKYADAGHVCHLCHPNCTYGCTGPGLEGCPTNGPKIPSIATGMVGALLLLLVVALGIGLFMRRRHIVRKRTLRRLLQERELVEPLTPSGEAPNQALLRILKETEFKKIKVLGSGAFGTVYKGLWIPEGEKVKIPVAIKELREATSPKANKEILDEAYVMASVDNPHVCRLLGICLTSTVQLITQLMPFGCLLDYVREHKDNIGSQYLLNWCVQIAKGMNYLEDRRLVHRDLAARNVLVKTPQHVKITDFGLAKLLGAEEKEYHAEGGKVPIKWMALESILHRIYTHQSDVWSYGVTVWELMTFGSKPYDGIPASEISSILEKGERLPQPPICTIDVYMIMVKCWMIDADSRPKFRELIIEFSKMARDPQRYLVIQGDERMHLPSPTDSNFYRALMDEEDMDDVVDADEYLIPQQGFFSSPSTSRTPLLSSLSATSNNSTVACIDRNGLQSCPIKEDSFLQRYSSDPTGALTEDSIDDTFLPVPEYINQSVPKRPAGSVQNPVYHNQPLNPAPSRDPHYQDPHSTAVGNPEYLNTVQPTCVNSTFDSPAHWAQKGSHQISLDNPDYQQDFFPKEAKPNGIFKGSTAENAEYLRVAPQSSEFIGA

For `Brc1cccc(Nc2ncnc3[nH]ccc23)c1` [Compound 2, N^4-(3-bromophenyl)-7H-pyrrolo[2,3-d]pyrimidine-4-amine], the “Cell killing (PI positive cells)” value in the test on FADU cells [1] (FADU, 100 µM, 72 h) is given as “efficient cell killing”. Further, the IC50 in the test on FADU cells [1] (Homo sapiens, FaDu, 48 h, read-out: IC50 cellular killing (PI-positive fraction)) is 150 µM. The “Cell growth (fold growth)” value with FADU cells [2] is reported as “completely inhibited cell growth”. Further, on EGFR, the Kd was found to be 0.067 µM.
